Key:
[1] = test system: ECC4; assay: cells; format: functional, cell-based; details: Homo sapiens;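 note: growth inhibition of ECC4 cells, read out with a cell viability assay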
Description: SANGER: Inhibition of human ECC4 cell growth in a cell viability assay.

[2] = test system: EFO-21; assay: cells; format: functional, cell-based, Homo sapiens; details: Homo sapiens, EFO-21;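 note: growth inhibition of EFO-21 cells measured with a viability assay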
Description: SANGER: Inhibition of human EFO-21 cell growth in a cell viability assay.

[3] = test system: GDM-1; assay: cells; format: functional, cell-based; details: Homo sapiens;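 note: cell viability readout used to measure growth inhibition of human GDM-1 cells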
Description: SANGER: Inhibition of human GDM-1 cell growth in a cell viability assay.

[4] = test system: HCC70; assay: cells; format: functional, cell-based, Homo sapiens; details: Homo sapiens, HCC70;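 note: cell viability assay measuring how strongly the compound suppresses proliferation of HCC70 cells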
Description: SANGER: Inhibition of human HCC70 cell growth in a cell viability assay.

[5] = test system: IM-9; assay: SANGER: Inhibition of human IM-9 cell growth in a cell viability assay.; format: functional, cell-based
[6] = test system: K052; assay: cells; format: functional, cell-based; details: Homo sapiens;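 note: Read-out from a cell viability assay, IC50 reflecting suppression of K052 cell growth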
Description: SANGER: Inhibition of human K052 cell growth in a cell viability assay.

[7] = test system: K5; assay: cells; format: functional, cell-based, Homo sapiens; details: Homo sapiens, K5
Description: SANGER: Inhibition of human K5 cell growth in a cell viability assay.

[8] = test system: KARPAS-299; assay: cells; format: functional, cell-based; details: Homo sapiens
Description: SANGER: Inhibition of human KARPAS-299 cell growth in a cell viability assay.

[9] = test system: KGN; assay: cells; format: functional, cell-based, Homo sapiens; details: Homo sapiens, KGN;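 note: growth inhibition of KGN cells, read out with a cell viability assay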
[10] = test system: KYSE-70 cell line; assay: cells; format: functional, cell-based, Homo sapiens; details: Homo sapiens, KYSE-70;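 note: cell viability assay read-out, with IC50 expressing suppression of KYSE-70 cell growth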
Description: SANGER: Inhibition of human KYSE-70 cell growth in a cell viability assay.

[11] = test system: LU-165; assay: cells; format: functional, cell-based; details: Homo sapiens
Description: SANGER: Inhibition of human LU-165 cell growth in a cell viability assay.

[12] = test system: MDA-MB-361; assay: cells; format: functional, cell-based, Homo sapiens; details: Homo sapiens, MDA-MB-361
[13] = test system: MEL-JUSO; assay: cells; format: functional, cell-based, Homo sapiens; details: Homo sapiens, MEL-JUSO;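 note: growth inhibition of human MEL-JUSO cells, read out with a cell viability assay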
Description: SANGER: Inhibition of human MEL-JUSO cell growth in a cell viability assay.

[14] = test system: MHH-CALL-2; assay: cells; format: functional, cell-based; details: Homo sapiens;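 note: growth inhibition of the cell line, read out in a cell viability assay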
Description: SANGER: Inhibition of human MHH-CALL-2 cell growth in a cell viability assay.

[15] = test system: MKN-28; assay: cells; format: functional, cell-based, Homo sapiens; details: Homo sapiens, MKN-28;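 note: cell viability assay read-out, IC50 reflects suppression of growth of human MKN-28 cells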
[16] = test system: MONO-MAC-6; assay: cells; format: functional, cell-based; details: Homo sapiens;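 note: cell viability assay measuring growth inhibition of human MONO-MAC-6 cells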
Description: SANGER: Inhibition of human MONO-MAC-6 cell growth in a cell viability assay.

[17] = test system: NALM-6; assay: cells; format: functional, cell-based; details: Homo sapiens;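 note: growth inhibition of NALM-6 cells, read out with a cell viability assay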
Description: SANGER: Inhibition of human NALM-6 cell growth in a cell viability assay.

[18] = test system: NCI-H187; assay: cells; format: functional, cell-based; details: Homo sapiens;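 note: growth inhibition of NCI-H187 cells, read out as cell viability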
Description: SANGER: Inhibition of human NCI-H187 cell growth in a cell viability assay.

[19] = test system: NCI-H1963; assay: cells; format: functional, cell-based; details: Homo sapiens;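 note: cell growth inhibition of the human line, determined with a cell viability assay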
Description: SANGER: Inhibition of human NCI-H1963 cell growth in a cell viability assay.

[20] = test system: NCI-H2030; assay: cells; format: functional, cell-based, Homo sapiens; details: Homo sapiens, NCI-H2030;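 note: growth inhibition of human NCI-H2030 cells, read out by a cell viability assay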
Description: SANGER: Inhibition of human NCI-H2030 cell growth in a cell viability assay.

[21] = test system: NCI-H2141; assay: cells; format: functional, cell-based; details: Homo sapiens;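 note: growth inhibition of human NCI-H2141 cells, read out with a cell viability assay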
Description: SANGER: Inhibition of human NCI-H2141 cell growth in a cell viability assay.

[22] = test system: NCI-H2227; assay: cells; format: functional, cell-based; details: Homo sapiens;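 note: growth inhibition of the human cell line, read out with a cell viability assay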
Description: SANGER: Inhibition of human NCI-H2227 cell growth in a cell viability assay.

[23] = test system: NCI-H28; assay: cells; format: functional, cell-based, Homo sapiens; details: Homo sapiens, NCI-H28;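 note: growth inhibition of human NCI-H28 cells, read out as cell viability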
Description: SANGER: Inhibition of human NCI-H28 cell growth in a cell viability assay.

[24] = test system: NCI-H345; assay: cells; format: functional, cell-based; details: Homo sapiens;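 note: growth inhibition of NCI-H345 cells measured with a cell viability assay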
Description: SANGER: Inhibition of human NCI-H345 cell growth in a cell viability assay.

[25] = test system: NCI-H460; assay: cells; format: functional, cell-based, Homo sapiens; details: Homo sapiens, NCI-H460;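 note: cell viability assay scoring growth inhibition of human NCI-H460 cells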
Description: SANGER: Inhibition of human NCI-H460 cell growth in a cell viability assay.

[26] = test system: NCI-H524; assay: cells; format: functional, cell-based; details: Homo sapiens;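 note: growth inhibition of human NCI-H524 cells, read out through a cell viability assay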
Description: SANGER: Inhibition of human NCI-H524 cell growth in a cell viability assay.

[27] = test system: NCI-H716; assay: cells; format: functional, cell-based; details: Homo sapiens;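 note: growth inhibition of human NCI-H716 cells, measured by a cell viability assay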
Description: SANGER: Inhibition of human NCI-H716 cell growth in a cell viability assay.

[28] = test system: OPM-2; assay: cells; format: functional, cell-based; details: Homo sapiens;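 note: growth of OPM-2 cells measured with a viability assay, IC50 for suppression of proliferation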
Description: SANGER: Inhibition of human OPM-2 cell growth in a cell viability assay.

[29] = test system: OS-RC-2; assay: cells; format: functional, cell-based, Homo sapiens; details: Homo sapiens, OS-RC-2;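 note: growth inhibition of human OS-RC-2 cells, measured by a cell viability assay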
Description: SANGER: Inhibition of human OS-RC-2 cell growth in a cell viability assay.

[30] = test system: P31-FUJ; assay: cells; format: functional, cell-based; details: Homo sapiens;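 note: growth inhibition of P31-FUJ cells, read out with a viability assay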
Description: SANGER: Inhibition of human P31-FUJ cell growth in a cell viability assay.

[31] = test system: REH; assay: cells; format: functional, cell-based; details: Homo sapiens;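 note: growth inhibition of REH cells determined with a cell viability read-out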
Description: SANGER: Inhibition of human REH cell growth in a cell viability assay.

[32] = test system: RL; assay: cells; format: functional, cell-based; details: Homo sapiens
Description: SANGER: Inhibition of human RL cell growth in a cell viability assay.

[33] = test system: Raji; assay: cells; format: functional, cell-based; details: Homo sapiens;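 note: cell viability assay measuring inhibition of Raji cell growth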
Description: SANGER: Inhibition of human Raji cell growth in a cell viability assay.

[34] = test system: SK-MM-2; assay: cells; format: functional, cell-based; details: Homo sapiens;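 note: growth inhibition of human SK-MM-2 cells, read out with a cell viability assay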
Description: SANGER: Inhibition of human SK-MM-2 cell growth in a cell viability assay.

[35] = test system: SK-N-AS; assay: cells; format: functional, cell-based, Homo sapiens; details: Homo sapiens, SK-N-AS;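 note: growth inhibition of human SK-N-AS cells, measured with a cell viability assay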
Description: SANGER: Inhibition of human SK-N-AS cell growth in a cell viability assay.

[36] = test system: SK-OV-3; assay: cells; format: functional, cell-based, Homo sapiens; details: Homo sapiens, SK-OV-3;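 note: growth inhibition of SK-OV-3 human cells, read out with a cell viability assay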
Description: SANGER: Inhibition of human SK-OV-3 cell growth in a cell viability assay.

[37] = test system: SNU-C1; assay: cells; format: functional, cell-based; details: Homo sapiens;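 note: growth inhibition of SNU-C1 human cells, read out by a cell viability assay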
Description: SANGER: Inhibition of human SNU-C1 cell growth in a cell viability assay.

[38] = test system: 8-MG-BA; assay: cells; format: functional, cell-based, Homo sapiens; details: Homo sapiens, 8-MG-BA;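 note: growth inhibition of 8-MG-BA cells, read out with a cell viability assay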
Description: SANGER: Inhibition of human 8-MG-BA cell growth in a cell viability assay.

[39] = test system: BC-3; assay: cells; format: functional, cell-based; details: Homo sapiens;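 note: cell viability assay measuring growth inhibition of human BC-3 cells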
Description: SANGER: Inhibition of human BC-3 cell growth in a cell viability assay.

[40] = test system: BEN; assay: cells; format: functional, cell-based, Homo sapiens; details: Homo sapiens, BEN;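 note: growth inhibition of the BEN cell line, read out with a cell viability assay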
Description: SANGER: Inhibition of human BEN cell growth in a cell viability assay.

[41] = test system: C8166; assay: cells; format: functional, cell-based; details: Homo sapiens;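 note: growth inhibition of human C8166 cells measured by a cell viability assay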
Description: SANGER: Inhibition of human C8166 cell growth in a cell viability assay.

[42] = test system: CAL-39; assay: cells; format: functional, cell-based, Homo sapiens; details: Homo sapiens, CAL-39;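 note: cell viability assay measuring growth inhibition of CAL-39 cells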
Description: SANGER: Inhibition of human CAL-39 cell growth in a cell viability assay.

[43] = test system: THP-1; assay: cells; format: functional, cell-based; details: Homo sapiens;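 note: growth inhibition of THP-1 cells, read out via a cell viability assay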
Description: SANGER: Inhibition of human THP-1 cell growth in a cell viability assay.

[44] = test system: U-698-M; assay: cells; format: functional, cell-based; details: Homo sapiens
Description: SANGER: Inhibition of human U-698-M cell growth in a cell viability assay.

[45] = test system: WSU-NHL; assay: cells; format: functional, cell-based; details: Homo sapiens;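 note: growth inhibition of human WSU-NHL cells, read out with a cell viability assay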
Description: SANGER: Inhibition of human WSU-NHL cell growth in a cell viability assay.

[46] = test system: YT; assay: cells; format: functional, cell-based; details: Homo sapiens
Description: SANGER: Inhibition of human YT cell growth in a cell viability assay.

[47] = test system: CAS-1; assay: cells; format: functional, cell-based, Homo sapiens; details: Homo sapiens, CAS-1;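 note: growth inhibition of CAS-1 cells, measured with a cell viability assay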
[48] = test system: CESS; assay: SANGER: Inhibition of human CESS cell growth in a cell viability assay.; format: functional, cell-based
[49] = test system: COLO-679; assay: cells; format: functional, cell-based, Homo sapiens; details: Homo sapiens, COLO-679
Description: SANGER: Inhibition of human COLO-679 cell growth in a cell viability assay.

## Cc1ccc(Nc2nccc(N(C)c3ccc4c(C)n(C)nc4c3)n2)cc1S(N)(=O)=O [PAZOPANIB]
[1]
  IC50: > 8000 nM
[2]
  IC50: > 8000 nM
[3]
  IC50: 104 nM
[4]
  IC50: > 8000 nM
[5]
  IC50: > 8000 nM
[6]
  IC50: > 8000 nM
[7]
  IC50: > 8000 nM
[8]
  IC50: > 8000 nM
[9]
  IC50: 4070 nM
[10]
  IC50: > 8000 nM
[11]
  IC50: > 8000 nM
[12]
  IC50: > 8000 nM
[13]
  IC50: > 8000 nM
[14]
  IC50: > 8000 nM
[15]
  IC50: > 8000 nM
[16]
  IC50: > 8000 nM
[17]
  IC50: > 8000 nM
[18]
  IC50: > 8000 nM
[19]
  IC50: > 8000 nM
[20]
  IC50: > 8000 nM
[21]
  IC50: > 8000 nM
[22]
  IC50: > 8000 nM
[23]
  IC50: > 8000 nM
[24]
  IC50: > 8000 nM
[25]
  IC50: > 8000 nM
[26]
  IC50: > 8000 nM
[27]
  IC50: 2320 nM
[28]
  IC50: > 8000 nM
[29]
  IC50: > 8000 nM
[30]
  IC50: > 8000 nM
[31]
  IC50: > 8000 nM
[32]
  IC50: > 8000 nM
[33]
  IC50: > 8000 nM
[34]
  IC50: > 8000 nM
[35]
  IC50: > 8000 nM
[36]
  IC50: > 8000 nM
[37]
  IC50: > 8000 nM
[38]
  IC50: > 8000 nM
[39]
  IC50: > 8000 nM
[40]
  IC50: > 8000 nM
[41]
  IC50: > 8000 nM
[42]
  IC50: > 8000 nM
[43]
  IC50: > 8000 nM
[44]
  IC50: > 8000 nM
[45]
  IC50: > 8000 nM
[46]
  IC50: > 8000 nM
[47]
  IC50: 7760 nM
[48]
  IC50: > 8000 nM
[49]
  IC50: > 8000 nM

## CN(c1ncccc1CNc1nc(Nc2ccc3c(c2)CC(=O)N3)ncc1C(F)(F)F)S(C)(=O)=O [PF-00562271]
[1]
  IC50: > 2560 nM
[2]
  IC50: > 2560 nM
[3]
  IC50: > 2560 nM
[4]
  IC50: > 2560 nM
[5]
  IC50: > 2560 nM
[6]
  IC50: > 2560 nM
[7]
  IC50: > 2560 nM
[8]
  IC50: > 2560 nM
[9]
  IC50: > 2560 nM
[10]
  IC50: > 2560 nM
[11]
  IC50: > 2560 nM
[12]
  IC50: > 2560 nM
[13]
  IC50: 1730 nM
[14]
  IC50: > 2560 nM
[15]
  IC50: > 2560 nM
[16]
  IC50: 2410 nM
[17]
  IC50: > 2560 nM
[18]
  IC50: > 2560 nM
[19]
  IC50: > 2560 nM
[20]
  IC50: > 2560 nM
[21]
  IC50: > 2560 nM
[22]
  IC50: > 2560 nM
[23]
  IC50: > 2560 nM
[24]
  IC50: > 2560 nM
[25]
  IC50: 2050 nM
[26]
  IC50: > 2560 nM
[27]
  IC50: > 2560 nM
[28]
  IC50: > 2560 nM
[29]
  IC50: > 2560 nM
[30]
  IC50: > 2560 nM
[31]
  IC50: > 2560 nM
[32]
  IC50: > 2560 nM
[33]
  IC50: > 2560 nM
[34]
  IC50: > 2560 nM
[35]
  IC50: > 2560 nM
[36]
  IC50: > 2560 nM
[37]
  IC50: > 2560 nM
[38]
  IC50: > 2560 nM
[39]
  IC50: > 2560 nM
[40]
  IC50: > 2560 nM
[41]
  IC50: > 2560 nM
[42]
  IC50: 2420 nM
[43]
  IC50: > 2560 nM
[44]
  IC50: > 2560 nM
[45]
  IC50: > 2560 nM
[46]
  IC50: > 2560 nM
[47]
  IC50: > 2560 nM
[48]
  IC50: > 2560 nM
[49]
  IC50: > 2560 nM

## Cn1cncc1[C@@](N)(c1ccc(Cl)cc1)c1ccc2c(c1)c(-c1cccc(Cl)c1)cc(=O)n2C [TIPIFARNIB]
[1]
  IC50: > 16000 nM
[2]
  IC50: 4260 nM
[3]
  IC50: 352 nM
[4]
  IC50: 1050 nM
[5]
  IC50: > 16000 nM
[6]
  IC50: 15900 nM
[7]
  IC50: > 16000 nM
[8]
  IC50: > 16000 nM
[9]
  IC50: 452 nM
[10]
  IC50: 1410 nM
[11]
  IC50: > 16000 nM
[12]
  IC50: 2110 nM
[13]
  IC50: 23.4 nM
[14]
  IC50: 10600 nM
[15]
  IC50: 1440 nM
[16]
  IC50: 3350 nM
[17]
  IC50: 36.2 nM
[18]
  IC50: > 16000 nM
[19]
  IC50: > 16000 nM
[20]
  IC50: 2350 nM
[21]
  IC50: > 16000 nM
[22]
  IC50: > 16000 nM
[23]
  IC50: > 16000 nM
[24]
  IC50: > 16000 nM
[25]
  IC50: 4930 nM
[26]
  IC50: > 16000 nM
[27]
  IC50: > 16000 nM
[28]
  IC50: > 16000 nM
[29]
  IC50: 15000 nM
[30]
  IC50: > 16000 nM
[31]
  IC50: 59.2 nM
[32]
  IC50: > 16000 nM
[33]
  IC50: 12500 nM
[34]
  IC50: > 16000 nM
[35]
  IC50: > 16000 nM
[36]
  IC50: 2490 nM
[37]
  IC50: > 16000 nM
[38]
  IC50: 2130 nM
[39]
  IC50: 2980 nM
[40]
  IC50: 5400 nM
[41]
  IC50: > 16000 nM
[42]
  IC50: 962 nM
[43]
  IC50: > 16000 nM
[44]
  IC50: 3990 nM
[45]
  IC50: > 16000 nM
[46]
  IC50: 1650 nM
[47]
  IC50: > 16000 nM
[48]
  IC50: 2020 nM
[49]
  IC50: 985 nM

From ChEMBL document CHEMBL1201861, “Genomics of Drug Sensitity in Cancer screening data, Wellcome Trust Sanger Institute”
